Measured values taken from patent publication US20240016161A1, “HERBICIDAL MENTHA PLANT EXTRACT COMPOSITIONS AND METHODS OF USING SAME” (Harpe Bioherbicide Solutions Inc., priority 2020, published 2024).

Tests used:
[1] = system: Rye; assay: POST synergy treatments in pots; type: in vivo, ryegrass; conditions: POST emergence to 10 cm plants
Experimental: (§1) Potted plants. These assays are conducted in pots using a commercial potting media to establish broadleaf and grass plants with at least one true leaf. The cotyledons are not treated in these assays.

[2] = system: Timothy; assay: POST synergy treatments in pots; type: in vivo; conditions: POST emergence to 10 cm plants
Experimental: as §1

[3] = system: Rye; assay: PRE synergy of weed control in pots/soil; conditions: two weeks after planting, Pendimethalin / Mentha piperata, rate in label
Experimental: (§4) Potted soil. Commercial potting mix is used as a base with approximately 2 inches of 5% organic matter soil used on the top. Seeds are sown in the soil between 1 cm and 2.5 cm (as indicated by best practices for each plant-seed), filtered water added with various broadleaf and grass species to initiate germination. Conducted in the dark at 75/60 F day night temperature with relative humidity at 50%. Seeds are allowed to imbibe water for 24 hours. […] Seeds, wells have water added every two days. Seeds are monitored for 14 days following treatment. Visual rating for germination, radicle, shoot, and root elongation are recorded. Commercial herbicides are also used at the US label recommended rate for treatment as a positive control.

[4] = system: Timothy; assay: PRE synergy of weed control in pots/soil; conditions: two weeks after planting, Pendimethalin / Mentha piperata, rate in label
Experimental: as §4

[5] = system: Rye; assay: PRE germination synergy in Petri dishes; type: in vivo, ryegrass; conditions: preemergence, Topramezone / Mentha spicata, rate in label
Experimental: (§2) Petri Dish. Seed impacts. Dishes layered with filter paper and filtered water added with various broadleaf and unwanted grass species to initiate germination. Conducted in the dark at 75/60° F. day night temperature with relative humidity at 50%. […] The percent volume/volume of extract to water carrier is summarized above. The amount in mg/ml was calculated based on the percent of extract mixed with water. […] Seeds have water added every two days. […] Plates are exposed to 12/12 hour day/night cycle after 7 days.

[6] = system: Timothy; assay: PRE germination synergy in Petri dishes; type: in vivo; conditions: preemergence, Topramezone / Mentha spicata, rate in label
Experimental: as §2

[7] = system: seedlings; assay: PRE germination synergy in Petri dishes, bleaching; type: in vivo, ryegrass and Timothy; conditions: preemergence, Topramezone / Mentha spicata, rate in label
Experimental: as §2

[8] = system: 2-leaf corn; assay: Disrupting metabolism of herbicide resistant plants in pots; type: in vivo; conditions: POST to 2-leaf corn, Topramezone / Mentha piperata, rate in label
From the text: (§3) Testing involves the same methods as listed above but with weeds/plants which are resistant to herbicides. An example plant is corn, which uses a cytochrome P450 enzyme(s) to detoxify certain commercially available herbicides (Ex. mesotrione). Corn also uses a glutathione S-transferase detoxification system for other commercially available herbicides (ex. Atrazine). Still other examples of herbicide detoxification include “Phase I” reactions—dechlorination, hydroxylation, decarboxylation, dealkylation, oxidation/reduction, and hydrolysis are the initial chemical reactions that occur. These reactions detoxify the herbicide and predispose the resultant metabolites to conjugation. “Phase II” reactions are another example, by conjugation with sugars, amino acids or natural plant constituents (metabolites are strongly bound). Also, “Phase II” I reactions are unique to plants and consist of secondary conjugation reactions or the formation of insoluble bound residues. Most crops grown in the world utilize detoxification, mixed function oxidase, enzymes to protect themselves from herbicides and other xenobiotics. Weeds also utilize this system of enzymes, as well as other biochemical actions, to prevent herbicides from damaging or killing the weeds. […]

[9] = system: Timothy; assay: Disrupting metabolism of herbicide resistant plants in pots, green loss; type: in vivo; conditions: POST, Topramezone / Mentha piperata, rate in label
From the text: as §3

[10] = Atrazine / Mentha piperata, rate in label
[11] = Glyphosate / Mentha piperata, 7 days
[12] = Glyphosate / Mentha piperata, 14 days

CCNc1nc(Cl)nc(NC(C)C)n1 [Atrazine 1x alone, Atrazine]
% control Rye [1, 10]: 55% | % control Timothy [2, 10]: 60%

O=C(O)CNCP(=O)(O)O [Glyphosate 1x alone, Glyphosate]
% control Rye 7 days [1, 11]: 0% | % control Rye 14 Days [1, 12]: 85% | % control Timothy 7 days [2, 11]: 0% | % control Timothy 14 Days [2, 12]: 90%

CCC(CC)Nc1c([N+](=O)[O-])cc(C)c(C)c1[N+](=O)[O-] [Pendi 1x, Pendimethalin]
% control Rye [3]: 37% | % control Rye ([3]; listed as Pendi 2x): 57% | % control Rye ([3]; listed as Pendi 4x): 92% | % control Timothy [4]: 50% | % control Timothy ([4]; listed as Pendi 2x): 75% | % control Timothy ([4]; listed as Pendi 4x): 83%

Cc1c(C(=O)c2cnn(C)c2O)ccc(S(C)(=O)=O)c1C1=NOCC1 [Topro 1x alone, Topramezone]
PRE Germination % control Rye [5]: 50% | PRE Germination % control Timothy [6]: 60% | % bleaching of seedlings [7]: 50% | % Control 14 Day [8]: 0% | % Green loss Timothy 14 Day [9]: 5%
